The source of these data is article PMC6461236, “The three dimensional structure of Bovine Salivary Protein 30b (BSP30b) and its interaction with specific rumen bacteria” (PLoS ONE, 2019).

The target of the assay is T1, BSP30b (Bovine Salivary Protein 30b) (Bos taurus, UniProt P79125).
T1 construct: gene SPLUNC2B; E. coli BL21, pProEx Htb (BamHI/XhoI), HiTrap Ni, MONO Q and SEC purified; synthetic F61M/F115M double mutant; model covers about residues 40-235
T1 sequence (P79125 20-240): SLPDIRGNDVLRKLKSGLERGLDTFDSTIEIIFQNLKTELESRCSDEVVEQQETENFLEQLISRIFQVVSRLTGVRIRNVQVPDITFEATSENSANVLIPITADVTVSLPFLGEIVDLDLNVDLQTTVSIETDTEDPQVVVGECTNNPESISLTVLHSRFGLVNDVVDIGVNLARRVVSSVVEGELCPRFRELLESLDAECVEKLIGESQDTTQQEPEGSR
Kind of assay: X-ray co-crystal structure, […] Å. The settings on record: co-crystallised at pH 7.5 after SEC removal of unbound ligand; in hydrophobic channel, about 80% occupancy in dominant site, weaker in second molecule of ASU; contacts ASP112 and ILE113. Format: binding.

As for `CCCCCCCC/C=C\CCCCCCCC(=O)O` [oleic acid], the “X-ray co-crystal structure, 2.30 Å” value is recorded as “The only structure that revealed elongated stretches of electron density within the hydrophobic tunnel”.
